Laboratory results as given in US20040063156A1, “Materials and methods relating to the diagnosis and treatment of diabetes and obesity” (Rodaris Pharmaceuticals Limited, priority 1996, published 2004).

Test: Urinary excretion of IPG P-type in diabetic patients treated with metformin
Format: in vivo, human
Settings: overweight/obese NIDDM patients on metformin, urine, FIGS. 5A,B
Text: A cross-sectional study was undertaken with random spot samples collected at outpatients clinics. The patients included NIDDM subjects controlled by diet alone, by sulphonylureas, by metformin, by insulin or a combination of any of these treatments. Only a limited number of IDDM subjects were available. In the present survey, male subjects were used, this avoided complications arising from varying hormone profiles in women of different ages, in particular with or without HRT or contraceptive pills. […] In addition to the measurement of IPG P-type and IPG A-type in urine the following clinical data was made available: […]

## CN(C)C(=N)N=C(N)N [metformin]
  effect on pattern of excretion of IPG P-type: fails to restore the pattern of excretion of IPG P-type to normal
